Three compounds from patent US20150299250A1, “MACROCYCLIC COMPOUNDS AND USES THEREOF” (ADELAIDE RESEARCH & INNOVATION PTY LTD, priority 2012, published 2015) can be followed below.

The target in data set [1] is T1, ovine calpain 1 (o-CAPN1) (Ovis aries, UniProt B2ZA85).
T1 sequence (B2ZA85 1-716): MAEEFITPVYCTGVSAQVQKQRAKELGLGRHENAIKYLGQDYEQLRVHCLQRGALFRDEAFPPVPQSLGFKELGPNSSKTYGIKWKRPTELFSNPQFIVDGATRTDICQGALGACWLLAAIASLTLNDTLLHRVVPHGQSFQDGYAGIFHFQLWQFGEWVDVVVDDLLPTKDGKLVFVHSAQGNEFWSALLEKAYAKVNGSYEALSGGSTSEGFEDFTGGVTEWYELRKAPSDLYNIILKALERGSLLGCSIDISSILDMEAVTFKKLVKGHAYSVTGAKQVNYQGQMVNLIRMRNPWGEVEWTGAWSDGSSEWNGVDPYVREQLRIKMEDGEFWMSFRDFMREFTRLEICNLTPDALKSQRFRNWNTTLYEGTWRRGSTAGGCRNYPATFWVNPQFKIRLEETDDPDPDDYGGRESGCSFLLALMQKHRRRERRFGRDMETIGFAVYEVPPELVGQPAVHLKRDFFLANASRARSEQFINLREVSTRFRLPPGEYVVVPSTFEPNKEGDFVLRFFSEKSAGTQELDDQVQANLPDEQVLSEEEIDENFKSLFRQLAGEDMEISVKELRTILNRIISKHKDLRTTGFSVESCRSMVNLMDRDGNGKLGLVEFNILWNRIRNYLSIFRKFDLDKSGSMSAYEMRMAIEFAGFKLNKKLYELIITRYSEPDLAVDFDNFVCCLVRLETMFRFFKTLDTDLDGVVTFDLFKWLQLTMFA
T1 sequence (A0ACI6PYI8 1-265 partner): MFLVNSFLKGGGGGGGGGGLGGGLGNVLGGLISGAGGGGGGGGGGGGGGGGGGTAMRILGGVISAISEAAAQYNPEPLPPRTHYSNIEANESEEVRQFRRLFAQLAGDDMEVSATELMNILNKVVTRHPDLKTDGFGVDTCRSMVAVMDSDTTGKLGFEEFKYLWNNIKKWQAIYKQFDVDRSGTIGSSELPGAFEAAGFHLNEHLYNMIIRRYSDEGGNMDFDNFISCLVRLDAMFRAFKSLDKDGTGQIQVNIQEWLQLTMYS
The data set is described as follows: Fluorometric calpain assay (BODIPY-Fl casein), ovine calpain 1. The data set is classed as biochemical. How it is done:
Fluorometric assays (excitation: 485 nm, emission: 520 nm) with ovine calpains 1 and 2 were done with a (BMG Labtech) Fluostar Optima plate reader at 37.0±0.2° C. in 96-well black (Greiner Bio-one) microassay plates. Calpains 1 and 2, partially purified from sheep lung by hydrophobic interaction and ion-exchange chromatography, were diluted in 20 mM MOPS, pH 7.5, containing 2 mM EGTA, 2 mM EDTA and 0.035% v/v 2-mercaptoethanol to give a linear response over the course of the assay. The substrate BODIPY-F1 casein was prepared as reported. {1} A 0.0005% solution of the substrate in 10 mM MOPS, pH 7.5, 10 mM CaCl2, 0.1 mM NaN3, 0.1% v/v 2-mercaptoethanol was prepared freshly before each experiment. […]
Inhibition studies were performed in the presence of seven different inhibitor concentrations and 1% v/v DMSO in a volume of 200 μL: 50 μl of inhibitor solution was added to a microassay well followed by 50 μl of calpain-containing solution. The reaction was initiated by adding 100 μl of BODIPY-F1 casein solution to each well and progress curves were monitored every 30 s over 570 s. Uninhibited enzyme activity was determined by adding 4% v/v DMSO in water instead of inhibitor solution. […]
The average value of rates obtained in two separate experiments, each in triplicate, was plotted versus the inhibitor concentration and IC50 values were calculated with the following equation: […]

Data set [2] concerns the target T2, 20S proteasome chymotrypsin-like (CT-L) activity (Oryctolagus cuniculus, UniProt G1T4Q9).
T2 sequence (G1T4Q9 1-263): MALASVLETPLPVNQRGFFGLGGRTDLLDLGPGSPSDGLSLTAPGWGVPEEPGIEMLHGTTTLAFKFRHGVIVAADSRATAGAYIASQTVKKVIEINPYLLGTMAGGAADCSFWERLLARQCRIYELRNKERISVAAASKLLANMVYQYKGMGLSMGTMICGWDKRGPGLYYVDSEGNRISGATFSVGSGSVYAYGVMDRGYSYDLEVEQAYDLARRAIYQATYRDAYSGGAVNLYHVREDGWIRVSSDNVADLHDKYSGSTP
The data set is described as follows: In vitro proteasome activity assay, CT-L (Suc-LLVY-AMC). The data set is classed as biochemical, rabbit. The note with it: purified 20S proteasome. How it is done: (§1) The assays were performed in vitro using purified 20S proteasome/inhibitor mixtures, with the activity of each subunit of the proteasome assessed upon incubation with its respective target peptide.
(§2) Purified rabbit 20S proteasome and fluorogenic CT-L substrate (Suc-LLVY-AMC) were purchased from Boston Biochem (Cambridge, Mass., USA). The T-L and CP-L fluorogenic substrates (Ac-RLR-AMC and Z-nLPnLD-AMC) were purchased from Enzo Life Sciences (Farmingdale, N.Y., USA). The 20S proteasome was diluted to 0.2 μg/μL in 20S proteasome buffer (50 mM HEPES pH 7.6, 150 mM NaCl and 1 mM DDT) and stored at −80° C. Purified 20S proteasome (8 ng) was pre-incubated with the indicated concentrations of inhibitors for 15 minutes and subsequently added to the AMC-labeled substrate peptide (50 μM) in assay buffer (25 mM HEPES, pH 7.5, 0.5 mM EDTA, 0.05% NP-40, and 0.001% SDS (w/v)) at 37° C. for 2 hours.

In data set [3] the target is T3, 20S proteasome T-L activity (Oryctolagus cuniculus, UniProt G1SWK8).
T3 construct: purchased Boston Biochem
T3 sequence (G1SWK8 1-271): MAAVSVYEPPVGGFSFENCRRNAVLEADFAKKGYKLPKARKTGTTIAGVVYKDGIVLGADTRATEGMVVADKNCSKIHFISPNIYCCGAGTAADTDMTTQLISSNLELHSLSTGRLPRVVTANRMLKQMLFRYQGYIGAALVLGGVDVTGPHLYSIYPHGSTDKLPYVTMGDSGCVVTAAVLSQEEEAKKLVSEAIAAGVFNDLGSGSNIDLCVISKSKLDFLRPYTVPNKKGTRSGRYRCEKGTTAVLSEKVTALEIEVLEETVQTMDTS
The data set is described as follows: In vitro proteasome activity assay, T-L (Ac-RLR-AMC). The data set is classed as biochemical, rabbit. The settings on record: purified 20S proteasome; highest concentration tested 25,000 nM. How it is done: as §1, §2

Data set [4] deals with T4, 20S proteasome CP-L activity (Oryctolagus cuniculus, UniProt A0A5F9DQW2).
T4 construct: Purified rabbit 20S proteasome
The data set is described as follows: In vitro proteasome activity assay, CP-L (Z-nLPnLD-AMC). Format: biochemical, rabbit. The settings on record: purified 20S proteasome; highest concentration tested 25,000 nM. How it is done:
We initially determined the ability of the novel tripeptide MG132 analogues 1-6 and the macrocycles 3a and 4a to inhibit the three separate protease activities of the 20S proteasome (CT-L, -T-L and CP-L). The assays were performed in vitro using purified 20S proteasome/inhibitor mixtures, with the activity of each subunit of the proteasome assessed upon incubation with its respective target peptide. […] In addition, there is no apparent clear-cut preference for the length of tether (compare compounds 1 to 4), while the introduction of an aryl group at P3 (as in 6) is well tolerated.
as §2, with “hours. Fluorescent substrate cleavage by the 20S proteasome was linear during this incubation timeframe (Supplementary Figure S4. Hydrolysed 7-amino-4-methylcoumarin (AMC) was subsequently detected with the FLUOstar OPTIMA microplatefluorometer at excitation/emission of 390/460 nm. The activity was estimated in relative fluorescence units and half of the maximal inhibitory activity of the proteasome is represented by IC50 values. A minimum of three biological replicates were performed for each data point.” for “hours.”

The test system of data set [5] is WE-68 Ewing's sarcoma cells. The data set is described as follows: Cell viability assay (7AAD, 48 hours), WE-68. The note with it: 48 hours exposure; read-out: Cancer cell lines IC50 (μM) WE-68. Format: cell-based. How it is done:
(§3) Cell viability assays were performed as previously described. Briefly, cells were seeded in 96 well microtiterplates at a density of 3×10^4 cells per well in the presence of the indicated chemical. Cells were harvested 48 hours post-treatment, centrifuged at 1,300×g, washed in phosphate-buffered saline (PBS) and stained with 7AAD solution (2 μg/mL) (7-amino-actinomycin-D, Invitrogen, Carlsbad, Calif.) for 10 mins at room temperature. Viable cells were determined with the use of a FACS Calibur flow cytometer (Becton Dickinson Immunocytometry Systems), and analyzed with the use of FLOWJO (Tree Star, Inc) and GraphPad Prism (GraphPad Software Inc).
(§4) WE-68 and VH-64 Ewing's sarcoma cells were kindly supplied by F. van Valen (Department of Orthopaedic Surgery, Westfalische-Wilhelms-University, Germany).TC-252 and STA-ET-1 Ewing's sarcoma cells were kindly provided by G. Hamilton (Department of Surgery, University of Vienna, Austria) or P. Ambros (Children's Cancer Research Institute, St Anna Children's Hospital, Vienna, Austria). Primary human embryonic fibroblasts or primary human osteoblasts were collected from the Women's and Children's Hospital (North Adelaide, South Australia, Australia) or Royal Adelaide Hospital with patient consent. Mouse Embryonic Fibroblasts (MEFs) and its p53-null derivative were kindly supplied by Guillermina Lozano (Department of Genetics, Anderson Cancer Centre, University of Texas, Houston, Tex., USA). WE-68 cell lines were grown in RPMI-1640 media, whilst human embryonic fibroblasts and MEFs were grown in Dulbecco's Modified Eagle's Medium (DMEM). Media was supplemented with 10% FCS, 1% PSG and 10 mM HEPES. All cells were maintained at 37° C. in a humidified atmosphere of 5% CO2.

Data set [6] relates to VH-64 Ewing's sarcoma cells. The data set is described as follows: Cell viability assay (7AAD, 48 hours), VH-64. Format: cell-based. The settings on record: 48 hours exposure; read-out: Cancer cell lines IC50 (μM) VH-64. How it is done:
as §3, §4

Data set [7] has as its system STA-ET-1 Ewing's sarcoma cells. The experiment in a line: Cell viability assay (7AAD, 48 hours), STA-ET-1. Format: cell-based. The settings on record: 48 hours exposure; read-out: Cancer cell lines IC50 (μM) STA-ET-1. How it is done:
as §3, §4

Data set [8] deals with TC-252 Ewing's sarcoma cells. The experiment in a line: Cell viability assay (7AAD, 48 hours), TC-252. Format: cell-based. The note with it: 48 hours exposure; read-out: Cancer cell lines IC50 (μM) TC-252. How it is done:
as §3, §4

The test system of data set [9] is primary human embryonic fibroblasts. The experiment in a line: Cell viability assay (7AAD, 48 hours), normal fibroblasts. Format: cell-based. The settings on record: Fibroblast, 48 hours exposure, read-out: Normal cell lines IC50 (μM) Fibroblasts. How it is done: as §3, §4
The subject of data set [10] is primary human osteoblasts. The experiment in a line: Cell viability assay (7AAD, 48 hours), normal osteoblasts. The data set is classed as cell-based. The settings on record: Osteoblast, 48 hours exposure, read-out: Normal cell lines IC50 (μM) Osteoblasts. How it is done:
as §3, §4

For data set [11], the system named is panel of sarcoma cell lines (WE-68, VH-64, STA-ET-1, TC-252). The experiment in a line: Cell viability assay, panel of four sarcoma cell lines (average). Format: cell-based. How it is done: as §3, §4
For data set [12], the system named is normal cell lines (fibroblasts, osteoblasts). The experiment in a line: Cell viability assay, normal cell lines (average). Format: cell-based. The settings on record: Homo sapiens; average of fibroblasts and osteoblasts. How it is done: as §3, §4

T4 sequence (A0A5F9DQW2 1-212): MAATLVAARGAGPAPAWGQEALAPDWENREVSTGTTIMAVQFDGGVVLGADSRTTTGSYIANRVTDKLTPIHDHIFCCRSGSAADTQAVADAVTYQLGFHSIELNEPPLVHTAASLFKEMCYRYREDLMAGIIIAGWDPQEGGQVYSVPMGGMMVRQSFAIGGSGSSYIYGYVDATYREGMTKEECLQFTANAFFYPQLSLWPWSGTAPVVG

As for `CC(C)C[C@@H](C=O)NC(=O)[C@@H]1CCCCCCCCCCCC(=O)c2ccc([nH]2)C(=O)N1` [Compound 1c, (S)—N—((S)-4-methyl-1-oxopentan-2-yl)-2,16-dioxo-3,20-diazabicyclo[15.2.1]icosa-1(19),17-diene-4-carboxamide], the “isoform selectivity o-CAPN2 vs. o-CAPN1” value in [1] is reported as “no isoform selectivity”.

What is called IC50 is the concentration that inhibits the measured activity by half. By melting point is commonly meant the temperature, or range, at which the solid turns liquid. For `C#CCOc1ccc(C[C@@H](C=O)NC(=O)[C@H](CC(C)C)NC(=O)[C@H](CN=[N+]=[N-])NC(=O)OCc2ccccc2)cc1` [Compound 1], the melting point was in the range of 71 to 73 °C. In data set [2], this compound registered an IC50 of 34 nM. The compound further registered an IC50 in data set [3] of more than 25000 nM. This compound showed an IC50 in [4] of more than 25000 nM. In addition, the IC50 in [5] is 4.5 µM. Moreover, in [6], the IC50 is 5.8 µM. The IC50 in data set [7] came to 6.5 µM. In [8], the IC50 is 5 µM. Moreover, the IC50 in data set [9] amounted to 12.2 µM. For the same compound, in data set [10], the IC50 was determined as 23.7 µM. Also, the IC50 in [11] (average of four sarcoma cell lines, read-out: Average IC50 for cancer cell lines) is 5.4 µM. Also, the Therapeutic window result in [11] (fold change in potency (IC50) against cancer cell line versus normal cell line) is on record as “×3.3”. In addition, in [12], half-maximal inhibition (IC50) required 18 µM.

As for `CC(C)CC(C=O)NC(=O)C1CCCCOc2ccc(cc2)CCC(=O)c2ccc([nH]2)C(=O)N1` (stereo not drawn) [Compound 2c], in data set [1], the “isoform selectivity o-CAPN2 vs. o-CAPN1” value was “no isoform selectivity”.
